Entries after “also recorded” stand apart in the source; their conditions may differ.
Assays:
Format in all cases: in vivo
[1] = test system: 5-FU-induced tumor-bearing CID mice; assay: Diarrhea scoring, 5-FU-induced tumor-bearing CID mice; conditions: 20 mg/kg i.g., tumor-bearing 5-FU model
Source text: The bacterial composition used in Examples 10-12 were obtained by mixing five strains at equal CFU concentrations according to the method in Example 9. The CFU of the bacterial composition referred to in Examples 10-12 was the total CFU of the five strains.
(§1) Experimental design: Fifty male BALB/c mice (purchased from Chengdu GemPharmatech Co., Ltd.) were housed in an SPF-grade animal room. CT26 cells (purchased from Beijing BeNa Culture Collection) were subcutaneously inoculated into the right flank of each mouse at a dose of 5×10^6 cells/mouse in a volume of 0.1 mL. When the tumor volume reached about 100-150 mm^3, 42 mice were selected for the subsequent experiment. Based on the tumor volume, the aforementioned 42 mice were randomly divided into 7 groups of 6. The aforementioned 7 groups were as follows: a normal control group (administration regimen: lyoprotectant at 0.2 mL/mouse/day), a model control group (administration regimen: lyoprotectant at 0.2 mL/mouse/day), a positive control loperamide group (administration regimen: loperamide at 20 mg/kg body weight), a Zhengchangsheng group (administration regimen: Bacillus licheniformis at 2×10^8 CFU/mouse/day), a high-dose bacterial composition group (administration regimen: bacterial composition at 1×10^9 CFU/mouse/day), a medium-dose bacterial composition group (administration regimen: bacterial composition at 1×10^8 CFU/mouse/day), and a low-dose bacterial composition group (administration regimen: bacterial composition at 1×10^7 CFU/mouse/day). The day of grouping was designated as day 1 (D1) of the experiment, and intragastric administration was started on day 1 (D1) and performed once daily (QD) for 9 consecutive days. On days 3, 4, 5, and 6 of administration, the normal control group was intraperitoneally injected with normal saline at 0.2 mL/mouse, while the mice in all other groups were intraperitoneally injected with 5-FU (50 mg/kg body weight, 10 mL/kg body weight) for modeling. Compared with the normal control group, the tumor volumes of mice in each group were reduced after 5-FU injection.

[2] = Body weight, radiation enteritis model mice; conditions: 15 mg/kg i.g.
Method: (§2) (1) Experimental design: Eighty male C57BL/6 mice (purchased from Chengdu GemPharmatech Co., Ltd.) were housed in an SPF-grade animal room. Based on the body weight, the aforementioned mice were randomly divided into 8 groups of 10: a normal control group (administration regimen: normal saline at 0.2 mL/mouse/day), a model control group (administration regimen: lyoprotectant at 0.2 mL/mouse/day), a loperamide group (administration regimen: loperamide at 15 mg/kg body weight), an LGG (Lactobacillus rhamnosus GG, Shaanxi Zelang Biotechnology Co., Ltd.) group (administration regimen: LGG at 1×10^9 CFU/mouse/day), a high-dose bacterial composition group (administration regimen: bacterial composition at 1×10^9 CFU/mouse/day), a medium-high-dose bacterial composition group (administration regimen: bacterial composition at 1×10^8 CFU/mouse/day), a medium-dose bacterial composition group (administration regimen: bacterial composition at 1×10^7 CFU/mouse/day), and a low-dose bacterial composition group (administration regimen: bacterial composition at 1×10^6 CFU/mouse/day). Except for the normal control group, all other groups of mice were subjected to a single whole abdominal X-ray irradiation at a dose of 11.5 Gy. The overall experimental period was 18 days, designated as D1 to D18. Each group was subjected to intragastric administration once daily for 17 consecutive days. Seven days after administration, irradiation was performed on D8, and dissection was conducted on D18.
(§3) During the experimental period, the body weight of the animals was measured daily, and general observations were recorded (the observation items included but were not limited to the animals' appearance signs, behaviors and activities, respiration, glandular secretion, fecal condition, etc.). The diarrhea condition of each animal after irradiation modeling was specifically observed and then recorded and scored. At the end of the experiment, the animals were euthanized, and the colorectal parts were taken, directly fixed in a 10% formaldehyde solution, stained with HE, and then subjected to pathological examination.

[3] = test system: mice with radiation enteritis; assay: Diarrhea scoring, radiation enteritis model mice; conditions: 15 mg/kg i.g.
[4] = test system: 5-FU-induced tumor-bearing CID mice; assay: Blood routine examination, 5-FU-induced tumor-bearing mouse model; conditions: 20 mg/kg i.g.; tumor-bearing 5-FU model
Method: as §1
The specific administration regimens are detailed in Table 18. After the end of the experiment, whole blood samples were collected from animals in each group through enucleation, and then subjected to blood routine examination using a five-classification blood cell analyzer for animals (Shenzhen Dymind Biotechnology Co., Ltd.).

[5] = test system: TNF-α; assay: qPCR of colon tissue, 5-FU-induced diarrhea mice; conditions: 20 mg/kg i.g., 5-FU model
Source text: (§4) (1) Experimental design: Ninety-six SPF-grade male Balb/c mice weighing 22-24 g (purchased from Beijing Vital River Laboratory Animal Technology Co., Ltd.) were housed in an SPF-grade animal room. Based on the initial body weight, the mice were randomly divided into 8 groups of 12: a normal control group, a model control group, a positive control loperamide group, a positive control Zhengchangsheng group, a high-dose bacterial composition group, a medium-high-dose bacterial composition group, a medium-dose bacterial composition group, and a low-dose bacterial composition group. The aforementioned 8 groups were intragastrically given normal saline (0.2 mL/mouse/day), lyoprotectant (0.2 mL/mouse/day), loperamide (purchased from Henan Zhongjie Pharmaceutical Co., Ltd., 20 mg/kg body weight/mouse/day), Zhengchangsheng (containing viable Bacillus licheniformis, Northeast Pharmaceutical Group Co., Ltd., 2×10^8 CFU/mouse/day), high-dose bacterial composition (1×10^9 CFU/mouse/day), medium-high-dose bacterial composition (1×10^8 CFU/mouse/day), medium-dose bacterial composition (1×10^7 CFU/mouse/day), and low-dose bacterial composition (1×10^6 CFU/mouse/day), respectively. The overall experimental period was 9 days, designated as D1 to D9. Intragastric administration was performed for 8 consecutive days from D1 to D8. Modeling was started on D3. The mice in the normal control group received abdominal injection of normal saline at 0.2 mL/mouse, while the mice in all other groups were intraperitoneally injected with 5-FU (5-fluorouracil, purchased from Tianjin Pharma Heping (Tianjin) Pharmaceutical Co., Ltd.; specification: 10 mL/vial, 0.25 g/10 mL) at 30 mg/kg body weight for 4 consecutive days to induce a CID mouse model. The mice were dissected on D9.
(§5) During the experimental period, the body weight of the animals was measured daily, and general observations were recorded (the observation items included but were not limited to the animals' appearance signs, behaviors and activities, respiration, glandular secretion, fecal condition, etc.). The diarrhea condition of each animal after modeling was specifically observed and then recorded and scored. After euthanasia was performed at the end of the experiment, middle colon tissue samples were collected for qPCR detection of genes related to inflammatory factors (TNF-α and IL-1β) and tight junction proteins (ZO-1 and Occludin).
(§6) (3) qPCR detection: The total RNA was extracted from colon tissues of the mice in each group using the Trizol method and then reverse-transcribed into cDNA. The cDNA was stored at −20° C. for later use. The relative mRNA transcriptional levels of the genes encoding the pro-inflammatory factors IL-1β and TNF-α, as well as the tight junction proteins ZO-1 and Occludin-1, in the colon of the mice in each group were detected using the qRT-PCR method (the primer sequences are shown in Table 7, and the internal reference gene was β-actin). Reaction program: 1) 95° C. for 3 min; 2) 95° C. for 10 s, 60° C. for 30 s, 95° C. for 15 s, and 60° C. for 1 min, 40 cycles in total; and 3) 95° C. for 10 s. Data analysis was performed using the 2^−ΔΔCT method.

[6] = test system: IL-1β; assay: qPCR of colon tissue, 5-FU-induced diarrhea mice; conditions: 20 mg/kg i.g.; 5-FU model
Source text: as §4, §5, §6

[7] = test system: Occludin; assay: qPCR of colon tissue, 5-FU-induced diarrhea mice; conditions: 20 mg/kg i.g.; 5-FU model
Source text: as §4, §5, §6

[8] = test system: ZO-1; assay: qPCR of colon tissue, 5-FU-induced diarrhea mice; conditions: 20 mg/kg i.g.; 5-FU model
Source text: as §4, §5, §6

[9] = test system: mice with radiation enteritis; assay: Colorectal pathological examination (HE), radiation enteritis model mice; conditions: 15 mg/kg i.g.
Method: as §2, §3
(3) Pathological examination of intestinal tissues: The colorectal parts were directly fixed in a 10% formaldehyde solution, stained with HE, and then subjected to pathological examination.

[10] = test system: mice with 5-FU-induced diarrhea; assay: Diarrhea scoring, mice with 5-FU-induced diarrhea (CID model); conditions: 20 mg/kg i.g.; 5-FU model
Method: Pdist-1, Lferm-1, Lsali-1, Eaviu-1, and Bbifi-1 were each inoculated into the corresponding bacterial powder preparation medium, and then anaerobically cultured at 37° C. and 90 rpm for 16-24 h to obtain a primary seed solution. Subsequently, the five primary seed solutions were each transferred to the corresponding bacterial powder preparation medium, and then anaerobically cultured at 37° C. and 90 rpm for 10-15 h to obtain a secondary seed solution. The five secondary seed solutions were each pumped into a fermenter containing the corresponding bacterial powder preparation medium using a peristaltic pump, and then subjected to fermentation culture. After the fermentation was stopped, the bacterial cells of each strain were collected by centrifugation. Each corresponding lyoprotectant was added according to a weight ratio of the bacterial sludge to the lyoprotectant of 1:1 to 1:2, and the mixture was well mixed to emulsify the bacterial sludge. Each bacterial sludge was lyophilized and pulverized to obtain a bacterial powder. An appropriate amount of each pulverized bacterial powder was taken for determination of viable count. The bacterial powders of the strains were mixed at equal CFU concentrations based on the viable counts to obtain a bacterial composition powder. Finally, the bacterial composition powder was prepared into a bacterial suspension using normal saline for an animal experiment. The bacterial suspension was diluted with normal saline to obtain bacterial compositions with different bacterial doses. […]
During the experimental period, the body weight of the animals was measured daily, and general observations were recorded (the observation items included but were not limited to the animals' appearance signs, behaviors and activities, respiration, glandular secretion, fecal condition, etc.). The diarrhea condition of each animal after modeling was specifically observed and then recorded and scored. […]

SMILES: CN(C)C(=O)C(CCN1CCC(O)(c2ccc(Cl)cc2)CC1)(c1ccccc1)c1ccccc1 [Loperamide, loperamide]
- D1-D9 total diarrhea score [1]: 4.67 ± 0.56
- D6 diarrhea score [1]: 0.33 ± 0.21
- D7 diarrhea score [1]: 1.00 ± 0.00
- D8 diarrhea score [1]: 1.33 ± 0.21
- D9 diarrhea score [1]: 2.00 ± 0.37
- D1-D9 total diarrhea score ([1]; listed as loperamide): a significant reduction; also recorded: significantly ameliorate diarrhea
- D8 diarrhea score ([1]; listed as loperamide): a significant reduction
- D1 body weight [2]: 23.11 ± 0.20 g
- D14 body weight [2]: 19.79 ± 0.14 g
- D14 body weight change rate [2]: −14.37 ± −10.00%
- D17 body weight [2]: 20.92 ± 0.16 g
- D17 body weight change rate [2]: −9.48 ± −6.38%
- D17 body weight ([2]; listed as loperamide): a trend toward restoring
- D17 total diarrhea score [3]: 9.80 ± 0.59
- D17 total diarrhea score ([3]; listed as loperamide): significant improvements
- Hematocrit [4]: 43.17 ± 0.99%
- Lymphocyte count [4]: 1.18 ± 0.29 10^9/L
- Platelet count [4]: 216.67 ± 21.53 10^9/L
- Red blood cell count [4]: 9.39 ± 0.23 10^12/L
- White blood cell count [4]: 1.24 ± 0.30 10^9/L
- TNF-a relative mRNA transcription level in colon tissue [5]: 1.05
- TNF-a relative mRNA transcription level in colon tissue ([5]; listed as loperamide): significantly reduce
- IL-1β relative mRNA transcription level in colon tissue [6]: 1.26
- Occludin relative mRNA transcription level in colon tissue [7]: 0.90
- ZO-1 relative mRNA transcription level in colon tissue [8]: 0.80
- Goblet cell (colorectal pathological score) [9]: 1.60 ± 0.08
- Inflammatory infiltration (colorectal pathological score) [9]: 2.00 ± 0.00
- Mucosal damage (colorectal pathological score) [9]: 1.60 ± 0.08
- Pathological score (colorectal) [9]: 5.20 ± 0.15
- Pathological score (colorectal) ([9]; listed as loperamide): an improvement trend
- D8 diarrhea score [10]: 0.08 ± 0.08
- D9 diarrhea score [10]: 0.17 ± 0.11
- Total diarrhea score [10]: 0.25 ± 0.18

From US20260115237A1, “PROBIOTIC COMPOSITION FOR PREVENTING AND TREATING ANTI-TUMOR TREATMENT-RELATED DIARRHEA AND USE THEREOF” (SICHUAN ANAEROBIC BIOTECHNOLOGY CO., LTD., priority 2023, published 2026)
